Data taken from patent US20010046986A1, “Method for controlling flies” (priority 2000, published 2001).

Test system: Musca domestica
Settings: female Musca domestica imagoes of a sensitive strain; oral, 1 μL of 50 ppm liquid composition in 5% granulated sugar solution (0.05 μg clothianidin); after 24 hours
Description: Insecticidal test by oral administration to Musca domestica
A clothianidin solution in alcohol was diluted with 5% granulated sugar solution to prepare a 50 ppm liquid composition of clothianidin.
Female Musca domestica imagoes (ten flies) of a sensitive strain kept without water for 3˜4 hours were anesthetized and lightly fixed to a pressure sensitive adhesive sheet which was cut into strips. After the test insects came out from the anesthetic, 1 μL of the liquid composition (containing 0.05 μg of clothianidin) was released from an injection needle attached to a micro dropper so that the test insects inhaled the composition.

SMILES: CN/C(=N\[N+](=O)[O-])NCc1cnc(Cl)s1 [clothianidin, (E)-1-(2-chloro-1,3-thiazol-5-ylmethyl)-3-methyl-2-nitroguanidine]
- insecticidal effect (flies dead): all flies were dead
